Patent EP3909646A1 (priority 2020, dated 2021)
“Also recorded” adds a separate entry of the source.

Experiments:
ACE2 = assay type: cell-based, human
TMPRSS2 = assay type: cell-based, human; conditions: Fig.4E
SARS-CoV-2 = assay type: cell-based
primary NHBE [1] = assay type: cell-based, human
primary NHBE [2] = conditions: uninfected primary NHBE, different doses titrated, Fig.1C

Compound	ACE2 gene expression (microarray, confirmed by qPCR) (ACE2)	ACE2 gene expression (qPCR) (ACE2)	TMPRSS2 gene expression (microarray, confirmed by qPCR) (TMPRSS2; 10 µM hydrocortisone, uninfected cells)	TMPRSS2 gene expression (qPCR) (TMPRSS2; 24h pre-treatment 10 µM hydrocortisone, uninfected and virus-infected NHBE, with or without IFN-γ)	virus titers / infectious viral particles in supernatant (plaque forming units) (SARS-CoV-2)	genes that may support the cytokine storm (gene expression) (primary NHBE [1])	type I interferons IFNB1 and IFNE and type III interferons such as IFNL3 (gene expression) (primary NHBE [1])	APOBEC3A gene expression (primary NHBE [1]; Fig.4A)	known and potential virus entry receptors (gene expression) (primary NHBE [1]; Fig.4C)	genes upregulated by SARS-CoV-2-infection, but downregulated by drug (primary NHBE [1]; Venn diagram, Fig.3E)	genes reduced by SARS-CoV-2-infection, but increased by drug (primary NHBE [1]; Venn diagram, Fig.7C)	global gene expression changes (primary NHBE [1]; icatibant 1 µM or hydrocortisone 10 µM, volcano plots, Fig.3D)	antiviral epithelial response (gene expression) (primary NHBE [1]; in general, Fig.4A)	antiviral response genes significantly downregulated (primary NHBE [1]; over all conditions, Fig.8A)	transcripts regulated by both, hydrocortisone and icatibant (primary NHBE [1]; overlap of the two drugs, majority long non-coding RNAs, Fig.3E)	potential cytotoxicity (LDH) (primary NHBE [2])	infection-mediated cytotoxicity (LDH), rescue (SARS-CoV-2 infected NHBE; 1 µM icatibant added 6h post-inoculation, Fig.5F)	infection-mediated cytotoxicity (LDH) (SARS-CoV-2 infected NHBE; 24h pre-treatment 1 µM icatibant, then 24h SARS-CoV-2 inoculation, n=12, Fig.5E)
C[C@]12CCC(=O)C=C1CC[C@@H]1[C@@H]2[C@@H](O)C[C@@]2(C)[C@H]1CC[C@]2(O)C(=O)CO [hydrocortisone]	upregulation of ACE2 and TMPRSS2 on the transcriptional level of uninfected cells	did not change	upregulation of ACE2 and TMPRSS2 on the transcriptional level of uninfected cells	still enhanced TMPRSS2 expression in both, uninfected and virus-infected NHBE	no adverse effect on the virus titers; also recorded: did not reduce virus titers	not significantly influenced	even slightly enhanced	even increased	rather enhances receptors, like TMPRSS2, 11B and 11E proteins	300 genes	198 genes	almost balanced relationship between suppression and induction of gene expression	changes of the antiviral epithelial response were not induced	significantly reduced DNAJC3, CREBZF, GPAM, BNIP3L and FAM111A	86 transcripts	–	–	–
NC(N)=NCCC[C@@H](N)C(=O)N[C@@H](CCCN=C(N)N)C(=O)N1CCC[C@H]1C(=O)N1C[C@H](O)C[C@H]1C(=O)NCC(=O)N[C@@H](Cc1cccs1)C(=O)N[C@@H](CO)C(=O)N1Cc2ccccc2C[C@@H]1C(=O)N1[C@H](C(=O)N[C@@H](CCCN=C(N)N)C(=O)O)C[C@@H]2CCCC[C@@H]21 [icatibant]	–	–	–	–	–	–	–	–	–	–	–	–	–	–	–	no toxic effects in NHBE cell cultures, but even exhibits a cell-protecting effect	significantly reduced	significantly reduced
